The target in one assay is T1, CDK4/cyclin D3 (Homo sapiens, UniProt P11802).
T1 construct: purchased Carna Biosciences, Inc. QS S Assist CDK4/Cyclin D3_FP Kit
The assay can be described thus: Human CDK4/cyclin D3 inhibitory activity (QS S Assist CDK4/Cyclin D3_FP Kit, IMAP fluorescent polarization). It counts as biochemical. To be noted: read-out: CDK4 Activity symbol. The procedure:
Human CDK4/Cyclin D3 Inhibitory Activity
Each compound was analyzed for CDK4/cyclin D3 inhibitory activity with an assay kit (QS S Assist CDK4/Cyclin D3_FP Kit, available from Carna Biosciences, Inc.). This assay kit determines kinase activity on the basis of the IMAP technology by Molecular Devices. Specifically, the kinase activity is determined through quantification of a variation in fluorescent polarization caused by binding of a kinase-phosphorylated fluorescent substance to an IMAP-binding reagent.
Each solution was prepared with the 10× assay buffer attached to the kit or a separately prepared assay buffer having the same composition as the assay buffer attached to the kit. An assay buffer was prepared by 10-fold dilution of the 10× assay buffer with distilled water. The assay buffer contains 20 mM HEPES (pH 7.4), 0.01% Tween20, and 2 mM dithiothreitol. A test compound solution was prepared by dilution of the test compound with dimethyl sulfoxide (DMSO) to a concentration 100 times higher than the final concentration and then 25-fold dilution with the assay buffer to a concentration four times higher than the final concentration. An ATP/substrate/Metal solution was prepared by five-fold dilution of the 5×ATP/substrate/Metal solution attached to the kit with the assay buffer. An enzyme solution was prepared by dilution of the CDK4/cyclin D3 attached to the kit with the assay buffer to a concentration twice higher than the final concentration (final concentration of CDK4/cyclin D3: 12.5 to 25 ng/well). A detection reagent was prepared by five-fold dilution of each of 5×IMAP-binding buffer A and 5×IMAP-binding buffer B with distilled water, mixing of IMAP-binding buffer A with IMAP-binding buffer B at a ratio of 85:15, and 400-fold dilution of the IMAP-binding reagent with the mixed buffer.
(§1) The test compound solution (5 μL/well) and the ATP/substrate/Metal solution (5 μL/well) were added to a 384-well plate, and the enzyme solution or the assay buffer (10 μL/well) was added to the plate (total amount of the reaction mixture: 20 μL/well) for initiation of enzymatic reaction. […] The reaction was performed at room temperature for 45 minutes, and the detection reagent (60 μL/well) was then added to the plate, followed by further reaction for 30 minutes at room temperature under light shielding conditions. Subsequently, fluorescent polarization was determined with a microplate reader at an excitation wavelength of 485 nm and an emission wavelength of 535 nm.
The percent inhibition of enzyme activity was calculated for each test compound (note: enzyme activity=100% in the case of addition of the enzyme solution and addition of DMSO instead of the test compound solution, whereas enzyme activity […] in the case of addition of the assay buffer instead of the enzyme solution, and addition of DMSO instead of the test compound solution). The percent inhibition of enzyme activity was fitted to a dose-response curve, to determine a 50% inhibitory concentration against CDK4/cyclin D3.
In each table, “+++” corresponds to IC50<10 nM. “++” 10 nM […] IC50<100 nM, and “+” 100 nM≤IC50.

For a further assay, the target named is T2, CDK2/cyclin A2 (Homo sapiens, UniProt P24941).
T2 construct: purchased Carna Biosciences, Inc. QS S Assist CDK2/Cyclin A2_FP Kit
The assay can be described thus: Human CDK2/cyclin A2 inhibitory activity (QS S Assist CDK2/Cyclin A2_FP Kit, IMAP fluorescent polarization). It counts as biochemical. The conditions noted are these: read-out: CDK2 Activity symbol. How it is done: Human CDK2/Cyclin A2 Inhibitory Activity
Each compound was analyzed for CDK2/cyclin A2 inhibitory activity with an assay kit (QS S Assist CDK2/Cyclin A2_FP Kit, available from Carna Biosciences, Inc.). This assay kit determines kinase activity on the basis of the IMAP technology by Molecular Devices. Specifically, the kinase activity is determined through quantification of a variation in fluorescent polarization caused by binding of a kinase-phosphorylated fluorescent substance to an IMAP-binding reagent.
An assay buffer was prepared by 10-fold dilution of the 10× assay buffer attached to the kit with distilled water, and each solution was prepared with the assay buffer. The assay buffer contained 20 mM HEPES (pH 7.4), 0.01% Tween 20, and 2 mM dithiothreitol. A test compound solution was prepared by dilution of the test compound with dimethyl sulfoxide (DMSO) to a concentration 100 times higher than the final concentration and then 25-fold dilution with the assay buffer to a concentration four times higher than the final concentration. An ATP/substrate/Metal solution was prepared by five-fold dilution of the 5×ATP/substrate/Metal solution attached to the kit with the assay buffer. An enzyme solution was prepared by dilution of the CDK2/cyclin A2 attached to the kit with the assay buffer to a concentration twice higher than the final concentration (final concentration of CDK2/cyclin A2: 2.5 ng/well). A detection reagent was prepared by five-fold dilution of 5×IMAP-binding buffer A with distilled water and 400-fold dilution of the IMAP-binding reagent with the diluted buffer.
as §1, with “60” for “45”
The percent inhibition of enzyme activity was calculated for each test compound (note: enzyme activity=100% in the case of addition of the enzyme solution and addition of DMSO instead of the test compound solution, whereas enzyme activity […] in the case of addition of the assay buffer instead of the enzyme solution and addition of DMSO instead of the test compound solution). The percent inhibition of enzyme activity was fitted to a dose-response curve, to determine a 50% inhibitory concentration against CDK2/cyclin A2.
In each table, “+++” corresponds to IC50<10 nM, “++” 10 nM≤IC50<100 nM, and “+” 100 nM≤IC50.

T1 sequence (P11802 whole entry): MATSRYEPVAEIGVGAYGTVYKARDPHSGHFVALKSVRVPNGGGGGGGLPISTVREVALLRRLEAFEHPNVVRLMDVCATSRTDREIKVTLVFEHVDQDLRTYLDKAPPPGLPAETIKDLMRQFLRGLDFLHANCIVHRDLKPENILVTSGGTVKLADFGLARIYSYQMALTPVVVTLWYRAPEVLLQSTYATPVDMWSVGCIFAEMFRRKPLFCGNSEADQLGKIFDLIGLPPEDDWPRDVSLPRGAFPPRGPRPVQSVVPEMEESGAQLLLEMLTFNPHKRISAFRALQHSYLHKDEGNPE
T1 sequence (P30281 whole entry partner): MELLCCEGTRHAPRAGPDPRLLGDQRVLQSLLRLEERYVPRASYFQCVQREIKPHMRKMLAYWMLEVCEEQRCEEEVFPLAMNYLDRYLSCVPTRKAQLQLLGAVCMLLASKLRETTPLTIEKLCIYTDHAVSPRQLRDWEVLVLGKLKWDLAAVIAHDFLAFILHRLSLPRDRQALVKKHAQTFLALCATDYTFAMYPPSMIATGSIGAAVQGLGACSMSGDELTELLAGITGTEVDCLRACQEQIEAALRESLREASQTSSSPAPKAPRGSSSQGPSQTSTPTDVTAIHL

Turning to `C[C@@H](O)c1cc2cnc(Nc3ccc(CN4CCN(CCO)CC4)cn3)nc2c(N2CC3CC3C2)n1` (some centres unmarked) [Compound 104], the IC50 on CDK4/cyclin D3 was less than 10 nM; at CDK2/cyclin A2, no less than 100 nM.

For the compound `OCc1cc2cnc(Nc3ccc(N4CCNCC4)cn3)nc2c(-c2ccsc2)n1` [Compound 16], the IC50 on CDK4/cyclin D3 was less than 10 nM.

`C[C@@H](O)c1cc2cnc(Nc3ccc(CN4CCC(O)CC4)cn3)nc2c(N2CCOCC2)n1` [Compound 67]: the IC50 was 10 to 100 nM on CDK4/cyclin D3 and no less than 100 nM at CDK2/cyclin A2.

In the case of `C[C@@H](O)c1cc2cnc(Nc3ccc(CN4CCN(CCO)CC4)cn3)nc2c(N2CCC(O)CC2)n1` [Compound 106], the IC50 at CDK4/cyclin D3 is less than 10 nM; on CDK2/cyclin A2, no less than 100 nM.

With `Cc1nc(Nc2ncc3cc([C@@H](C)O)nc(N4CCCCCC4)c3n2)ccc1N1CCCNCC1=O` [Compound 306], the values for the IC50 at CDK4/cyclin D3 and on CDK2/cyclin A2 were less than 10 nM and 10 to 100 nM, respectively.

For the compound `CNC(=O)c1cc2cnc(Nc3ccc(N4CCNCC4)cn3)nc2c(N2CCCCC2)n1` [Compound 29], the IC50 at CDK4/cyclin D3 is 10 to 100 nM; on CDK2/cyclin A2, no less than 100 nM.

With `C[C@@H](O)c1cc2cnc(Nc3ccc4c(n3)CCN(C(=O)[C@H]3CCCCN3)C4)nc2c(N2CCCCC2)n1` [Compound 211], the IC50 on CDK4/cyclin D3 is less than 10 nM; at CDK2/cyclin A2, no less than 100 nM.

`C[C@@H](O)c1cc2cnc(Nc3ccc(C(=O)N4CCOCC4)cn3)nc2c(N2CCCCC2)n1` [Compound 310]: the IC50 on CDK4/cyclin D3 was less than 10 nM; at CDK2/cyclin A2, no less than 100 nM.

Turning to `C[C@@H](O)c1cc2cnc(Nc3ccc4c(n3)CCN(C(=O)CN3CC(F)C3)C4)nc2c(N2C3CCC2CC3)n1` [Compound 235], the IC50 on CDK4/cyclin D3 is less than 10 nM; at CDK2/cyclin A2, no less than 100 nM.

As to `C[C@@H](O)c1cc2cnc(Nc3ccc(CN4CCN(CCO)CC4)cn3)nc2c(N2C3CCC2CC3)n1` [Compound 103], the IC50 on CDK4/cyclin D3 was less than 10 nM; on CDK2/cyclin A2, no less than 100 nM.

`CO[C@H](C)c1cc2cnc(Nc3ccc(N4CCN(C)CC4)nn3)nc2c(N2CCC(F)CC2)n1` [Compound 125]: the IC50 on CDK4/cyclin D3 was 10 to 100 nM; on CDK2/cyclin A2 it was no less than 100 nM.

With `C[C@@H](O)c1cc2cnc(Nc3ccc4c(n3)CCN(CCN3CCOCC3)C4)nc2c(N2CCCCC2)n1` [Compound 162], the IC50 on CDK4/cyclin D3 is less than 10 nM; at CDK2/cyclin A2, no less than 100 nM.

As for `C[C@@H](O)c1cc2cnc(Nc3ccc(CN4CCN(C)CC4)cn3)nc2c(N2CCC[C@@H](F)C2)n1` [Compound 198], the IC50 on CDK4/cyclin D3 was less than 10 nM; at CDK2/cyclin A2, no less than 100 nM.

Turning to `Cc1nc(Nc2ncc3cc([C@@H](C)O)nc(N4CCCCC4)c3n2)ccc1N1CCCNCC1=O` [Compound 305], the values for the IC50 on CDK4/cyclin D3 and on CDK2/cyclin A2 were less than 10 nM and 10 to 100 nM, respectively.

As for `C[C@@H](O)Cc1cc2cnc(Nc3ccc(N4CCNCC4=O)cn3)nc2c(N2CCCCC2)n1` [Compound 169], the values for the IC50 at CDK4/cyclin D3 and on CDK2/cyclin A2 were 10 to 100 nM and no less than 100 nM, respectively.

Consider `C[C@@H](O)c1cc2cnc(Nc3ccc(CN4CCN(C)CC4)cn3)nc2c(N2CC[C@@H](F)C2)n1` [Compound 116], for which the values for the IC50 on CDK4/cyclin D3 and on CDK2/cyclin A2 were less than 10 nM and no less than 100 nM, respectively.

Consider `C[C@@H](O)c1cc2cnc(Nc3ccc(OC4CCNCC4)cn3)nc2c(N2CC[C@@H](F)C2)n1` [Compound 221], for which the IC50 on CDK4/cyclin D3 was less than 10 nM; at CDK2/cyclin A2 it was no less than 100 nM.

`CC1CCC(C)N1c1nc([C@@H](C)O)cc2cnc(Nc3ccc(CN4CCN(C)CC4)cn3)nc12` (some centres unmarked) [Compound 140]: the results for the IC50 at CDK4/cyclin D3 and at CDK2/cyclin A2 were less than 10 nM and no less than 100 nM, respectively.

For `c1cc(N2CCNCC2)nnc1Nc1ncc2cc(C3CCOC3)nc(N3CCCCC3)c2n1` (centres unmarked) [Compound 208], the IC50 at CDK4/cyclin D3 is less than 10 nM; at CDK2/cyclin A2 it was no less than 100 nM.

Take `OCc1cc2cnc(Nc3ccc(N4CCNCC4)cn3)nc2c(N2CCCCC2)n1` [Compound 9]: the IC50 on CDK4/cyclin D3 is less than 10 nM.

`O=C(O)c1cc2cnc(Nc3ccc(N4CCNCC4)cn3)nc2c(N2CCCCC2)n1` [Compound 23]: on CDK4/cyclin D3, the IC50 was no less than 100 nM.

On to `CN1CCN(c2ccc(Nc3ncc4cc(CO)nc(C5=CCCCC5)c4n3)nc2)CC1` [Compound 22], for which, at CDK4/cyclin D3, the IC50 is less than 10 nM.

Consider `COC(C)c1cc2cnc(Nc3ccc(CN4CCNCC4)cn3)nc2c(N2CCC3CCNC3C2)n1` (centres unmarked) [Compound 44], for which the IC50 at CDK4/cyclin D3 is less than 10 nM.

In the case of `CN1CCN(c2ccc(Nc3ncc4cc(CO)nc(-c5ccsc5)c4n3)nc2)CC1` [Compound 20], the IC50 at CDK4/cyclin D3 was less than 10 nM.

Regarding `Cc1ccccc1-c1nc(CO)cc2cnc(Nc3ccc(N4CCN(C)CC4)cn3)nc12` [Compound 19], the IC50 at CDK4/cyclin D3 was less than 10 nM.

On to `CN1CCN(c2ccc(Nc3ncc4cc(CO)nc(-c5ccoc5)c4n3)nc2)CC1` [Compound 21], for which, at CDK4/cyclin D3, the IC50 was in the range of 10 to 100 nM.

Consider `OCc1cc2cnc(Nc3ccc(N4CCNCC4)cn3)nc2c(-c2ccoc2)n1` [Compound 17], for which the IC50 on CDK4/cyclin D3 lay within 10 to 100 nM.

Consider `Cc1ccc(-c2nc(CO)cc3cnc(Nc4ccc(N5CCNCC5)cn4)nc23)cc1` [Compound 14], for which the IC50 at CDK4/cyclin D3 is less than 10 nM.

Turning to `COC(C)c1cc2cnc(Nc3ccc(CN4CCNCC4)cn3)nc2c(N2CCC(CO)CC2)n1` (centres unmarked) [Compound 45], the IC50 at CDK4/cyclin D3 is less than 10 nM.

As for `COC(C)c1cc2cnc(Nc3ccc(CN4CCNCC4)cn3)nc2c(N2CCCCC2)n1` (centres unmarked) [Compound 43], the IC50 on CDK4/cyclin D3 was less than 10 nM.

For the compound `COCC1CCN(c2nc(C(C)OC)cc3cnc(Nc4ccc(CN5CCNCC5)cn4)nc23)CC1` (centres unmarked) [Compound 46], the IC50 on CDK4/cyclin D3 was less than 10 nM.

For `Cc1ccccc1-c1nc(CO)cc2cnc(Nc3ccc(N4CCNCC4)cn3)nc12` [Compound 15], at CDK4/cyclin D3, the IC50 is 10 to 100 nM.

In the case of `FC(F)c1cc2cnc(Nc3ccc(N4CCNCC4)cn3)nc2c(-c2ccccc2)n1` [Compound 12], the IC50 at CDK4/cyclin D3 was less than 10 nM.

For `CC(O)c1cc2cnc(Nc3ccc(CN4CCN(C)CC4)cn3)nc2c(N2CCOCC2C)n1` (centres unmarked) [Compound 291], at CDK4/cyclin D3, the IC50 is less than 10 nM.

For the compound `OCc1cc2cnc(Nc3ccc(N4CCNCC4)cn3)nc2c(-c2ccccc2)n1` [Compound 10], on CDK4/cyclin D3, the IC50 fell in the range of 10 to 100 nM.

For `CN1CCN(c2ccc(Nc3ncc4cc(C(F)F)nc(N5CCCCC5)c4n3)nc2)CC1` [Compound 13], at CDK4/cyclin D3, the IC50 is less than 10 nM.

For the compound `Cc1ccc(-c2nc(CO)cc3cnc(Nc4ccc(N5CCN(C)CC5)cn4)nc23)cc1` [Compound 18], the IC50 on CDK4/cyclin D3 is less than 10 nM.

As for `FC(F)c1cc2cnc(Nc3ccc(N4CCNCC4)cn3)nc2c(N2CCCCC2)n1` [Compound 11], the IC50 at CDK4/cyclin D3 is less than 10 nM.

Values taken from patent publication US11084814B2, “Pyrido[3, 4-d]pyrimidine derivative and pharmaceutically acceptable salt thereof” (Teijin Pharma Limited, priority 2016, dated 2021).
